The text below walks through data of US7902260B2, “Medicament for preventive and/or therapeutic treatment of lower urinary tract symptom” (Kemphys Ltd., priority 2007, dated 2011).

Structures are written as SMILES.

The subject of the assay is Rat Hydrochloric Acid-induced Cystitis Model. The experiment in a line: Evaluation in a rat hydrochloric acid-induced cystitis model (cystometry). The assay is classed as in vivo. The method, then:
On day 1, Crlj:CD(SD) male rats at 8 weeks of age were anesthetized by 2% isofurane inhalation and the abdomen of the rats were opened. After cannula was inserted into the bladder and fixed, the incision was closed with suture. On day 2, 0.2 N hydrochloric acid was injected into the bladder through cannula for 15 min to induce cystitis. On day 3, the first oral administration of a drug was performed. Since then, the drug was administrated once a day continuously for 7 days. As a retinoid drug, 3 mg/kg tamibarotene (Am80, 4-[(5,6,7,8-tetrahydro-5,5,8,8-tetramethyl-2-naphthalenyl)-carbamoyl] benzoic acid) suspended in 0.5% carboxymethylcellulose was orally administered. For the control group, 0.5% carboxymethylcellulose was orally administered. On day 10, bladder function under unanesthetized and unrestrained state was evaluated by cystometry. Via a three-way stopcock, warm saline (37° C.) was infused into the tube which was inserted into the bladder. At the other end of a three-way stopcock, bladder pressure was measured for 60 min by a pressure amplifier through a pressure transducer. At the same time, the weight change of excreted urine was measured using a balance. From these measured data, basal bladder pressure, maximum bladder pressure, micturition interval, and micturition volume were calculated. 5 rats were used in each group, control and tamibarotene group.
Values were indicated as average ±standard error. The difference between averages of control group and tamibarotene group was evaluated by Student's t-test (***p<0.001 compared with control).

The mark [1] stands for this setting: 3 mg/kg oral once a day for 7 days, cystometry on day 10, unanesthetized unrestrained rats, average ± standard error.

In the case of `CC1(C)CCC(C)(C)c2cc(NC(=O)c3ccc(C(=O)O)cc3)ccc21` [Tamibarotene, 4-[(5,6,7,8-tetrahydro-5,5,8,8-tetramethyl-2-naphthalenyl)-carbamoyl] benzoic acid], under setting [1], the Basal bladder pressure is reported as 15.1 ± 2.8 mmHg and the Maximum bladder pressure is on record as 36.6 ± 6.0 mmHg. The molecule further registered a Micturition volume (3 mg/kg oral once a day for 7 days, cystometry on day 10, average ± standard error) of 0.61 ± 0.24 g. The Micturition interval (3 mg/kg oral once a day for 7 days, cystometry on day 10, average ± standard error, ***p<0.001 compared with control) was 884 ± 113*** second. Further, under “3 mg/kg tamibarotene-administered group vs control, Student's t-test”, the “Micturition interval compared to control group (in words)” value is listed as “significantly improved”.
